Measured values as given in article PMC3826796 (European journal of cancer (Oxford, England : 1990), 2012).
Like-named read-outs stand apart in the source and are kept apart here.

Assays:
[1] = cited from earlier work
advanced malignancies = conditions: cited from earlier work
Phospho-AKT (T308) = conditions: CLL cells from a subset of patients, post-dose; cited from earlier work
[2] = Plasma pharmacokinetics of SF1126 and hydrolysis products SF1101 and SF1174; format: in vivo, human; conditions: human, in vivo
[3] = background statement, ref not given; cited from earlier work

## COc1ccc(-c2ccc3ncc4c(c3c2)n(-c2ccc(N3CCNCC3)c(C(F)(F)F)c2)c(=O)n4C)cn1 [BGT226]
[1]; phase I, advanced solid tumours
  AE profile: nausea, vomiting and diarrhoea

## Nc1cc(C(F)(F)F)c(-c2cc(N3CCOCC3)nc(N3CCOCC3)n2)cn1 [BKM120]
Advanced malignancies; phase I
  Patients on study for P8 months: 7
Advanced malignancies; phase I, triple negative breast cancer (KRAS mutated) patient
  PR (number of patients): 1
[1]; phase I
  AEs: grade 3 rash, abdominal pain and mood alterations
  Events observed at DLT: Two grade 4 hyperglycaemic events

## CC[C@H](Nc1ncnc2[nH]cnc12)c1nc2cccc(F)c2c(=O)n1-c1ccccc1 [CAL-101]
Advanced malignancies; refractory non-Hodgkin's lymphoma and chronic lymphocytic leukaemia
  Patients with durable responses of >6 months: 5
Phospho-AKT (T308)
  Reduction of Phospho-AKT (T308): > 90%

## CS(=O)(=O)N1CCN(Cc2cc3nc(-c4cccc5[nH]ncc45)nc(N4CCOCC4)c3s2)CC1 [GDC-0941]
Advanced malignancies; phase I, relapsed/refractory solid tumours
  Patients with anti-tumour activity: 3 of 19

## C=CCN(/C=C1/C(=O)O[C@H](COC)[C@@]2(C)C1=C(O)C(=O)C1=C2[C@H](OC(C)=O)C[C@]2(C)C(=O)CC[C@@H]12)CC=C [PX-866]
[1]
  Grade 3 adverse event: 1 reversible grade 3 transminitis

## O=c1cc(N2CCOCC2)oc2c(-c3ccccc3)cccc12 [SF1101, reference compound]
[2]
  Concentrations reached (Cmax versus dose): 20 to 30 µM
[2]; iv
  half-life: 1 to 2.4 h
[3]
  half-life: short half-life

## COc1ccc(Cl)c(Nc2nc3ccccc3nc2NS(=O)(=O)c2cccc(NC(=O)C(C)(C)N)c2)c1 [XL147]
Advanced malignancies
  Partial response: PR in a NSCLC patient with a confirmed PI3K3CA mutation
[1]
  Major DLT: skin rash

## CCn1c(=O)c(-c2cc[nH]n2)cc2c(C)nc(N)nc21 [XL765]
Advanced malignancies; Phase I, oral
  Patients on study for ≥16 weeks: 11
  Patients on study for ≥24 weeks: 7
